What was measured:
[1] = Gln and CBD concentration in the synovial fluid 8 hours after oral administration; conditions: 8 h after oral administration of 15 mg/Kg CBD + 500 mg/Kg Gln
Procedure: (§1) Three different water-soluble CBD oral formulae were tested, F #01 (20%), L #02 (2.5% CBD) and I #03 (20% CBD), and administered at 15 mg/Kg rat.
(§2) The three formulae were tested in combination with 500 mg/Kg Glucosamine (Gln).
(§3) The total administered volume was 10 mL/Kg (CBD+Gln).
(§4) The trial was performed on Sprague Dawley male rat (n=3/group).
(§5) A single dose containing CBD and Gln was provided PO at t=0.
Gln concentration in the synovial fluid was examined 8 hours after oral administration.

in vivo = conditions: male, Sprague Dawley, rat
Procedure: as §1, §2, §3, §4, §5
CBD and Gln plasma concentrations were examined 1, 4 and 8 hours following a single administration.

| Compound | CBD in the synovial fluid [1] | decrease of Gln plasma concentration from the 4 h point (in vivo) [%] | concentration at 1 h (in vivo; po, 500 mg/kg) [ng/mL] | concentration at 4 h (in vivo; po, 500 mg/kg) [ng/mL] | concentration at 8 h (in vivo; po, 500 mg/kg) [ng/mL] |
| --- | --- | --- | --- | --- | --- |
| C=C(C)[C@@H]1CCC(C)=C[C@H]1c1c(O)cc(CCCCC)cc1O [CBD, Cannabidiol] | No CBD was detected | – | – | – | – |
| N[C@H]1C(O)O[C@H](CO)[C@@H](O)[C@@H]1O (some centres unmarked) [Gln, Glucosamine] | – | 94.0 | 2.04 | 134 | 8 |

Source: patent publication US20210275556A1, “Cannabidiol Combination Compositions” (Companion Sciences. LLC, priority 2018, published 2021)
